Assay results reported in US20250353844A1, “TETRAHYDROPYRIDO 3,4-D PYRIMIDINE DERIVATIVES AS KRAS INHIBITORS” (Bristol-Myers Squibb Company, priority 2022, published 2025).

The compounds below were run against Recombinant GMPPNP-loaded KRAS G12C (KRAS-G12C(ON)) / GST-RAF1 RBD (Homo sapiens, UniProt P01116, G12C) (assay: KRAS G12C RAF Disruption Assay (HTRF)). Settings: GMPPNP-loaded KRAS G12C 5 nM, compound 20 min at room temperature, GST-RAF1 RBD 9 nM, HTRF signal; read-out: KRASG12C RAF Disruption Assay (IC50).
Chain of Recombinant GMPPNP-loaded KRAS G12C (KRAS-G12C(ON)) / GST-RAF1 RBD (P01116 1-188 isoform P01116-2 G12C): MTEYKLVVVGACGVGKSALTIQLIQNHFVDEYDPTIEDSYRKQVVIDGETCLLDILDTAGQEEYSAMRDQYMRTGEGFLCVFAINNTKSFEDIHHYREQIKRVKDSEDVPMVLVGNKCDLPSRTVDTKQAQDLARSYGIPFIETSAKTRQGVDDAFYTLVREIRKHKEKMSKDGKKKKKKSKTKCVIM
Format: biochemical
Description: Recombinant GST-RAF1 RBD (9 nM) was added, and the reaction mixture was incubated for 20 minutes. SA-Tb (0.25 nM) was added, and the reaction mixture was incubated for 3 hours. HTRF signal was measured (PerkinElmer Envision), the signal ratio (λem 520/λem 495) was calculated, and IC50 values were calculated from the dose-response curve.
`CN1CCC[C@H]1COc1nc2c(c(N3CCN(C(=O)C(F)=Cc4ccns4)[C@@H](CC#N)C3)n1)CCN(c1cccc3cccc(Cl)c13)C2` (racemic) [Example 9, 2-((S)-4-(7-(8-chloronaphthalen-1-yl)-2-(((S)-1-methylpyrrolidin-2-yl)methoxy)-5,6,7,8-tetrahydropyrido[3,4-d]pyrimidin-4-yl)-1-(2-fluoro-3-(isothiazol-5-yl)acryloyl)piperazin-2-yl)acetonitrile] was tested, and the IC50 was 57 µM.
Work on `CN1CCC[C@H]1COc1nc2c(c(N3CCN(C(=O)/C(F)=C/c4cccnc4)[C@@H](CC#N)C3)n1)CCN(c1cccc3cccc(Cl)c13)C2` [Example 2, 2-((S)-4-(7-(8-chloronaphthalen-1-yl)-2-(((S)-1-methylpyrrolidin-2-yl)methoxy)-5,6,7,8-tetrahydropyrido[3,4-d]pyrimidin-4-yl)-1-((Z)-2-fluoro-3-(pyridin-3-yl)acryloyl)piperazin-2-yl)acetonitrile] yielded an IC50 of 40.3 µM.
`CN1CCC[C@H]1COc1nc2c(c(N3CCN(C(=O)/C(F)=C/c4ccncc4)[C@@H](CC#N)C3)n1)CCN(c1cccc3cccc(Cl)c13)C2` [Example 3, 2-((S)-4-(7-(8-chloronaphthalen-1-yl)-2-(((S)-1-methylpyrrolidin-2-yl)methoxy)-5,6,7,8-tetrahydropyrido[3,4-d]pyrimidin-4-yl)-1-((Z)-2-fluoro-3-(pyridin-4-yl)acryloyl)piperazin-2-yl)acetonitrile] was tested, and the IC50 was 0.329 µM.
`CN1CCC[C@H]1COc1nc2c(c(N3CCN(C(=O)/C(F)=C/c4ncccn4)[C@@H](CC#N)C3)n1)CCN(c1cccc3cccc(Cl)c13)C2` [Example 4, 2-((S)-4-(7-(8-chloronaphthalen-1-yl)-2-(((S)-1-methylpyrrolidin-2-yl)methoxy)-5,6,7,8-tetrahydropyrido[3,4-d]pyrimidin-4-yl)-1-((Z)-2-fluoro-3-(pyrimidin-2-yl)acryloyl)piperazin-2-yl)acetonitrile] was tested, and the IC50 was 0.103 µM.
`CN1CCC[C@H]1COc1nc2c(c(N3CCN(C(=O)/C(F)=C/c4ncco4)[C@@H](CC#N)C3)n1)CCN(c1cccc3cccc(Cl)c13)C2` [Example 6, 2-((S)-4-(7-(8-chloronaphthalen-1-yl)-2-(((S)-1-methylpyrrolidin-2-yl)methoxy)-5,6,7,8-tetrahydropyrido[3,4-d]pyrimidin-4-yl)-1-((Z)-2-fluoro-3-(oxazol-2-yl)acryloyl)piperazin-2-yl)acetonitrile] showed an IC50 of 0.089 µM.
For `N#CC[C@H]1CN(c2nc(OC[C@@]34CCCN3C[C@H](F)C4)nc3c2CCN(c2cccc4cccc(Cl)c24)C3)CCN1C(=O)/C(F)=C/c1ccccn1` [Example 7, 2-((S)-4-(7-(8-chloronaphthalen-1-yl)-2 (((2R,7aS)-2-fluorotetrahydro-1H-pyrrolizin-7a(5H)-yl)methoxy)-5,6,7,8-tetrahydropyrido[3,4-d]pyrimidin-4-yl)-1-((Z)-2-fluoro-3-(pyridin-2-yl)acryloyl)piperazin-2-yl)acetonitrile], the IC50 was 0.074 µM.
`N#CC[C@H]1CN(c2nc(OC[C@@]34CCCN3C[C@H](F)C4)nc3c2CCN(c2cccc4cccc(Cl)c24)C3)CCN1C(=O)/C(F)=C/c1nccs1` [Example 8, 2-((S)-4-(7-(8-chloronaphthalen-1-yl)-2 (((2R,7aS)-2-fluorotetrahydro-1H-pyrrolizin-7a(5H)-yl)methoxy)-5,6,7,8-tetrahydropyrido[3,4-d]pyrimidin-4-yl)-1-((Z)-2-fluoro-3-(thiazol-2-yl)acryloyl)piperazin-2-yl)acetonitrile] showed an IC50 of 0.055 µM.
With `CN1CCC[C@H]1COc1nc2c(c(N3CCN(C(=O)/C(F)=C/c4nccn4C)[C@@H](CC#N)C3)n1)CCN(c1cccc3cccc(Cl)c13)C2` [Example 10, 2-((S)-4-(7-(8-chloronaphthalen-1-yl)-2-(((S)-1-methylpyrrolidin-2-yl)methoxy)-5,6,7,8-tetrahydropyrido[3,4-d]pyrimidin-4-yl)-1-((Z)-2-fluoro-3-(1-methyl-1H-imidazol-2-yl)acryloyl)piperazin-2-yl)acetonitrile] the IC50 was 24 µM.
In the case of `Cc1cccc(/C=C(\F)C(=O)N2CCN(c3nc(OC[C@@H]4CCCN4C)nc4c3CCN(c3cccc5cccc(Cl)c35)C4)C[C@@H]2CC#N)n1` [Example 11, 2-((S)-4-(7-(8-chloronaphthalen-1-yl)-2-(((S)-1-methylpyrrolidin-2-yl)methoxy)-5,6,7,8-tetrahydropyrido[3,4-d]pyrimidin-4-yl)-1-((Z)-2-fluoro-3-(6-methylpyridin-2-yl)acryloyl)piperazin-2-yl)acetonitrile], the IC50 is reported as 0.144 µM.
`Cc1ccnc(/C=C(\F)C(=O)N2CCN(c3nc(OC[C@@H]4CCCN4C)nc4c3CCN(c3cccc5cccc(Cl)c35)C4)C[C@@H]2CC#N)c1` [Example 12, 2-((S)-4-(7-(8-chloronaphthalen-1-yl)-2-(((S)-1-methylpyrrolidin-2-yl)methoxy)-5,6,7,8-tetrahydropyrido[3,4-d]pyrimidin-4-yl)-1-((Z)-2-fluoro-3-(4-methylpyridin-2-yl)acryloyl)piperazin-2-yl)acetonitrile] was tested, and the IC50 was 0.129 µM.
`Cc1ccc(/C=C(\F)C(=O)N2CCN(c3nc(OC[C@@H]4CCCN4C)nc4c3CCN(c3cccc5cccc(Cl)c35)C4)C[C@@H]2CC#N)nc1` [Example 13, 2-((S)-4-(7-(8-chloronaphthalen-1-yl)-2-(((S)-1-methylpyrrolidin-2-yl)methoxy)-5,6,7,8-tetrahydropyrido[3,4-d]pyrimidin-4-yl)-1-((Z)-2-fluoro-3-(5-methylpyridin-2-yl)acryloyl)piperazin-2-yl)acetonitrile] showed an IC50 of 0.192 µM.
`Cc1cccnc1/C=C(\F)C(=O)N1CCN(c2nc(OC[C@@H]3CCCN3C)nc3c2CCN(c2cccc4cccc(Cl)c24)C3)C[C@@H]1CC#N` [Example 14, 2-((S)-4-(7-(8-chloronaphthalen-1-yl)-2-(((S)-1-methylpyrrolidin-2-yl)methoxy)-5,6,7,8-tetrahydropyrido[3,4-d]pyrimidin-4-yl)-1-((Z)-2-fluoro-3-(3-methylpyridin-2-yl)acryloyl)piperazin-2-yl)acetonitrile] gave an IC50 of 0.778 µM.
With `C[C@H]1CN(C(=O)/C(F)=C/c2nccs2)CCN1c1nc(OC[C@@H]2CCCN2C)nc2c1CCN(c1cccc3cccc(Cl)c13)C2` [Example 15, (Z)-1-((S)-4-(7-(8-chloronaphthalen-1-yl)-2-(((S)-1-methylpyrrolidin-2-yl)methoxy)-5,6,7,8-tetrahydropyrido[3,4-d]pyrimidin-4-yl)-3-methylpiperazin-1-yl)-2-fluoro-3-(thiazol-2-yl)prop-2-en-1-one] the IC50 was 7.5 µM.
With `CN1CCC[C@H]1COc1nc2c(c(N3CCN(C(=O)/C(F)=C/c4ccon4)[C@@H](CC#N)C3)n1)CCN(c1cccc3cccc(Cl)c13)C2` [Example 16, 2-((S)-4-(7-(8-chloronaphthalen-1-yl)-2-(((S)-1-methylpyrrolidin-2-yl)methoxy)-5,6,7,8-tetrahydropyrido[3,4-d]pyrimidin-4-yl)-1-((Z)-2-fluoro-3-(isoxazol-3-yl)acryloyl)piperazin-2-yl)acetonitrile] the IC50 was 63.7 µM.
Work on `CN1CCC[C@H]1COc1nc2c(c(N3CCN(C(=O)/C(F)=C/c4ccno4)[C@@H](CC#N)C3)n1)CCN(c1cccc3cccc(Cl)c13)C2` [Example 17] yielded an IC50 of 10.5 µM.
In the case of `CN1CCC[C@H]1COc1nc2c(c(N3CCN(C(=O)/C(F)=C/c4cn(C)nn4)[C@@H](CC#N)C3)n1)CCN(c1cccc3cccc(Cl)c13)C2` [Example 18], the IC50 is reported as 92.6 µM.
